# Measured values from patent US10568918B2, “Composition comprising chlorella extract for preventing or treating liver disease” (GANGNEUNG-WONGJU NATIONAL UNIVERSITY INDUSTRY ACADEMY …, priority 2011, dated 2020).
# “And” between values parts separate entries of the source, which are not always exact repeats. Equal entries are not always repeated.
# Experiments:
# [1] = tested on: liver injury-induced animal models; test: SOD, CAT, GPx, ADH and ALDH activities in liver cytosol of ethanol liver-injured animal model; format: in vivo, SD rats; settings: 10 mg/kg in feed, 10 days
# Experimental: After inspection and adaptation for 1 week, healthy animals without weight loss were selected and used for the test. Test animals were bred under a condition of temperature: 23±3, relative humidity: 50±10%, air change rate: 10-15 times/hour, lighting time: 12 hours (08:00-20:00) and luminous intensity: 150-300 Lux. During adaptation period of 1 week, the test animals were freely fed with solid feed for test animal (Superfeed Co., Ltd., Wonju, South Korea) and drinking water. After the adaptation period of 1 week, healthy animals were selected, and divided to 5 groups by randomized block design. […] Test feeds were prepared by mixing each test compounds to the feed to the daily feeding amount of 50 or 100 mg per 1 kg of test animal weight as described above, and fed. […] The feed intake was measured every two days, and body weight was measured every week from the day of starting the oral administration of ethanol (0 day) to the final day of the experiment.
# 1 g liver tissue was homogenized with 0.25 M sucrose (pH 7.0). […] The activities of superoxide dismutase (SOD), catalase (CAT) and glutathione peroxidase (GPx) were measured using a kit of Cayman chemical company (Ann Arbor, Mich., USA). The activity of alcohol dehydrogenase (ADH) was measured by adding 0.2 M ethanol 10 μl, 0.05 M semicarbazide HCl 10 μl and 0.1 M NAD (in 0.01 M HCl) 10 μl to 0.1 M Tris-HCl buffer (pH 8.5) 160 μl followed by adding the cytosolic zymogen 10 μl thereto at 340 nm. […] The activity of acetaldehyde dehydrogenase (ALDH) was measured by adding 1 M KCl 10 μl, 0.1 M pyrazole 10 μl, 1 M 2-mercaptoethanol 10 μl, 0.1 M propione aldehyde 10 μl and 0.1 M NAD (in 0.01 M HCl) 10 μl to 0.2 M Tris-HCl buffer (pH 8.3) 150 μl followed by adding the cytosolic zymogen 10 μl at 340 nm, and the enzyme protein assay was conducted by a method of Lowry et al. (Lowry O H et al., 1957, J Biol Chem 193: 265-276).
# [2] = tested on: liver injury-induced animal models; test: Contents of total lipid, triglyceride and total cholesterol in liver tissue of ethanol liver-injured animal model; format: in vivo, SD rats; settings: 10 mg/kg
# Experimental: Specific pathogen free male SD rats of 5-week-old were purchased from Orient Bio Inc. (Seongnam, South Korea). After inspection and adaptation for 1 week, healthy animals without weight loss were selected and used for the test. Test animals were bred under a condition of temperature: 23±3, relative humidity: 50±10%, air change rate: 10-15 times/hour, lighting time: 12 hours (08:00-20:00) and luminous intensity: 150-300 Lux. During adaptation period of 1 week, the test animals were freely fed with solid feed for test animal (Superfeed Co., Ltd., Wonju, South Korea) and drinking water. After the adaptation period of 1 week, healthy animals were selected, and divided to 5 groups by randomized block design. […] Test feeds were prepared by mixing each test compounds to the feed to the daily feeding amount of 50 or 100 mg per 1 kg of test animal weight as described above, and fed. In order to induce the fatty liver by ethanol, 20% ethyl alcohol 5 g per kg (body weight) was orally administered twice a day (morning and afternoon) for 16 days. The feeds containing the test compounds were fed for 10 days after 17th day of the ethanol administration, and the ethanol was orally administered together with the feed continuously. During the test period, drinking water was freely supplied. The feed intake was measured every two days, and body weight was measured every week from the day of starting the oral administration of ethanol (0 day) to the final day of the experiment.
# Total lipid content in the liver tissue was analyzed by homogenizing 1 g liver tissue in a saline 3 ml followed by homogenizing again with CM solution (Chloroform:Methanol=2:1) 9 ml. The homogenate was centrifuged at 3,000 rpm for 10 min, and the lower layer was collected and evaporated followed by measuring the total lipid content using a precision scale. The measured total lipid was dissolved in isopropanol, and the triglyceride content and the total choresterol content were measured by a quantitative analysis kit using an enzyme method (Asan Pharm. Co., Ltd., Hwaseong, South Korea).
# [3] = tested on: liver injury-induced animal models; test: Content of lipid peroxide in liver microsome of ethanol liver-injured animal model; format: in vivo, SD rats; settings: EtOH +, 10 mg/kg, mean ± SEM
# Experimental: 1 g Liver tissue was homogenized in 0.25 M sucrose (pH 7.0). […] The content of the lipid peroxide was measured by a lipid peroxide measuring kit (BioAssay Systems, Hayward, Calif., USA), and the protein quantification was conducted by a method of Lowry et al. (Lowry O H et al., 1957, J Biol Chem 193: 265-276).
# [4] = tested on: liver injury-induced animal models; test: ALT, AST, γ-GT and LDH contents in blood serum of ethanol liver-injured animal model; format: in vivo, SD rats; settings: 10 mg/kg in feed, 10 days
# Experimental: The chlorella ethanol extract (CH) was used. The CH was dissolved in ethanol, and mixed with AlN-76 diet to be a daily intake of 50 mg or 100 mg per kg of a test animal weight and supplied to the animal. Specific pathogen free male SD rats of 5-week-old were purchased from Orient Bio Inc. (Seongnam, South Korea). After inspection and adaptation for 1 week, healthy animals without weight loss were selected and used for the test. Test animals were bred under a condition of temperature: 23±3, relative humidity: 50±10%, air change rate: 10-15 times/hour, lighting time: 12 hours (08:00-20:00) and luminous intensity: 150-300 Lux. During adaptation period of 1 week, the test animals were freely fed with solid feed for test animal (Superfeed Co., Ltd., Wonju, South Korea) and drinking water. […] The feed intake was measured every two days, and body weight was measured every week from the day of starting the oral administration of ethanol (0 day) to the final day of the experiment. […] To analyze contents of ALT, AST, γ-GT and LDH in a blood serum isolated from the blood collected on the day of the autopsy, alanine aminotransferase (ALT), aspartate aminotransferase (AST), gamma-glutamyl transferase (γ-GT) and lactic dehydrogenase (LDH) were analyzed using a blood biochemistry analyzer (KoneLab 20, Thermo Fisher Scientific, Waltham, […]).
# [5] = tested on: quinone reductase; test: Quinone reductase activity induction in Hepa1c1c7 liver cancer cells; format: cell-based, white rat; settings: sulforaphane at 5 μM, 5 × 10^3 cell/wells
# Experimental: For the ethanol extract and the ingredients of the isolated fractions, the quinone reductase activity induction was analyzed. In order to measure the quinone reductase activity induction effect of the fractions obtained from the chlorella, the experiment was conducted using a liver cancer cell line (Hepa1c1c7) of a white rat.
# First of all, a-MEM (minimum essential medium)/10% FBS (fetal bovine serum) solution was mixed with a liver cell culture solution to make the cell number of 1×10^5 cells/Ml, and the resulting solution 100 μl was added to a 96-well plate followed by incubating for 24 hours under a condition of 5% CO2 and 37° C. […]
# The protein solution 50 μl and reaction solution A (49 Ml 25 mM Tris buffer, 34 mg BSA, 0.34 Ml 1.5% tween-20 solution, 0.34 Ml co-enzyme solution, 100 unit glucose-6-phosphate dehydrogenase, 15 mg MTT, 50 μl 50 mM menadione) 200 μl were mixed together, and the absorbance increasing rate was measure at 610 nm using a microplate reader. The protein amount was measured at 595 nm using Bradford solution. […] The quinone reductase activity of the extract and the fraction was expressed as CD (the concentration of the sample where the quinone reductase activity of the sample-treated cell becomes twice).
# [6] = tested on: liver injury-induced animal models; test: Contents of triglyceride, total cholesterol and HDL-cholesterol in blood serum of ethanol liver-injured animal model; format: in vivo, SD rats; settings: EtOH +, 10 mg/kg, mean ± SEM
# Experimental: The chlorella ethanol extract (CH) was used. The CH was dissolved in ethanol, and mixed with AlN-76 diet to be a daily intake of 50 mg or 100 mg per kg of a test animal weight and supplied to the animal. Specific pathogen free male SD rats of 5-week-old were purchased from Orient Bio Inc. (Seongnam, South Korea). After inspection and adaptation for 1 week, healthy animals without weight loss were selected and used for the test. Test animals were bred under a condition of temperature: 23±3, relative humidity: 50±10%, air change rate: 10-15 times/hour, lighting time: 12 hours (08:00-20:00) and luminous intensity: 150-300 Lux. During adaptation period of 1 week, the test animals were freely fed with solid feed for test animal (Superfeed Co., Ltd., Wonju, South Korea) and drinking water. After the adaptation period of 1 week, healthy animals were selected, and divided to 5 groups by randomized block design. Namely, those were divided into a control group not treated with ethanol and the test material, a group orally administered with ethanol, a group orally administered with ethanol and fed with CH 50 mg/kg, a group orally administered with ethanol and fed with CH 100 mg/kg and a group orally administered with ethanol and fed with sulforaphane 10 mg/kg. The primary feed used in this experiment, AlN-76 was purchased from Research Diets, Inc. (New Brunswick, N.J., USA), and its composition is listed in Table 1. Test feeds were prepared by mixing each test compounds to the feed to the daily feeding amount of 50 or 100 mg per 1 kg of test animal weight as described above, and fed. […] The feeds containing the test compounds were fed for 10 days after 17th day of the ethanol administration, and the ethanol was orally administered together with the feed continuously. During the test period, drinking water was freely supplied. The feed intake was measured every two days, and body weight was measured every week from the day of starting the oral administration of ethanol (0 day) to the final day of the experiment. […]
# [7] = did not show the significant difference
structure (smiles),measurement,setting,value
C[S+]([O-])CCCCN=C=S (centres unmarked) [Sulforaphane],liver cytosol SOD activity vs ethanol administration group,[1],increased
same,liver cytosol CAT activity vs ethanol administration group,[1]; [7],increased
same,liver cytosol GPx activity vs group orally administered with ethanol,[1]; [7],increased
same,total liver cholesterol contents vs group orally administered with ethanol,[2]; showed the significant difference,decreased
same,Total cholesterol (mg/g liver),"[2]; EtOH +, mean ± SEM",4.39 mg/g liver
same,Total lipid (mg/g liver),"[2]; EtOH +, mean ± SEM",48.26 mg/g liver
same,Triglyceride (mg/g liver),"[2]; EtOH +, mean ± SEM",13.28 mg/g liver
same,Lipid peroxide (μM/mg protein),[3],2.07 μM/mg protein
same,serum γ-GT vs group orally administered with ethanol only,[4],did not show the significant difference
same,serum LDH content vs group orally administered with ethanol,[4]; with the significant difference,decreased
same,CD (concentration of the sample where the quinone reductase activity of the sample-treated cell becomes twice),[5],1.94 µg/mL and 2.48 µg/mL and 2.07 µg/mL
same,HDL-cholesterol,[6],33.39 mg/dL
same,Total cholesterol,[6],94.25 mg/dL
same,Triglyceride,[6],126.11 mg/dL
